{"source": "patent US20230211020A1", "about": "“TREATMENT OF INFECTIONS” (ACT Therapeutics Ltd, priority 2020, published 2023)", "key": {"[1]": {"assay": "Tissue specific uptake of Evans Blue in thigh muscle with ACT (Example 2, Study 1)", "assay_type": "in vivo", "conditions": "for EB ratio of the left (treated) to right (untreated) thigh muscle, average±SD: 30 min after treatment; for increase in the uptake upon ACT treatment: US insonated tissue vs. untreated", "method": "The tissue specific uptake of Evans Blue (EB, a fluorescent dye) has been investigated in a mouse model. Under physiologic conditions, the endothelium is impermeable to albumin, and Evans blue bound albumin remains confined within blood vessels. Thus, Evans blue is often used as a model compound in drug delivery studies [Bohmer et al., J Controlled Release, 148, Issue 1, 2010, pp. 18-24].\nFemale Balb/c nude mice were used. Before treatment, the mice were administered surgical anesthesia by subcutaneous injection of a mix of Fentanyl (0.05 mg/kg), Midazolam (5 mg/kg), and Medetomidine (0.5 mg/kg). An intravenous cannula (BD Neoflon™ 24 GA) was placed in the tail vein. Patency was verified by injection of a slight amount of 0.9% sodium chloride for injection after which a small amount of heparin (10 U/ml) was injection to prevent clotting. The hub of the cannula was filled with 0.9% sodium chloride for injection to eliminate any dead space and closed with a cap. The cannula was secured to the tail with surgical tape.\nEvans Blue solution (50 mg EB/kg) was injected i.v. followed immediately by 2 ml/kg of the cluster dispersion as detailed in Example 1. Two groups where compared (N=3 for each group): 1) EB+cluster dispersion and 2) EB+cluster dispersion+Activation and Enhancement ultrasound insonation.\nThe left hind limb of the mouse was placed in a water bath with two US transducers poised for insonation of the left thigh. Ultrasound Activation insonation was provided by a VScan clinical ultrasound scanner (GE Healthcare) with a 2 MHz probe for 45 seconds (MI=0.8) starting from the injection time. This was immediately followed by the Enhancement step comprising 5 minutes 500 kHz ultrasound insonation (MI=0.2) using a single element transducer (Imasonic SAS). Thirty minutes after treatment the animals were sacrificed, tissue samples; thigh muscle from the treated (left) leg and thigh muscle from the contra lateral untreated leg, were harvested and Evans Blue content extracted and quantified. The concentration in the treated thigh muscle was divided by the concentration in the untreated thigh muscle for each animal (matched pair) to provide a dimensionless ratio of the increased uptake in the treated muscle. A one-way ANOVA was applied to the data."}, "[2]": {"tested_on": "methicillin susceptible strain of Staphylococcus aureus", "assay": "Neutropenic staphylococcal thigh infection model, Levofloxacin with or without ACT (Example 3)", "assay_type": "in vivo", "conditions": "mice, dose-response study, read-out: ED50 (dose that induces a half maximal decline in bacterial density)", "description": "An established experimental model of staphylococcal thigh infection in a neutropenic thigh infection model was used and neutropenia will be induced with cyclophosphamide. The thigh infection model provides a sensitive experimental system for initial studies of antimicrobial efficacy in a mammalian system. This model is the most standardised for the evaluation of antimicrobial-microbial interactions combined with antimicrobial pharmacokinetics assessed in serum and tissues samples.\nThe challenge isolate was methicillin susceptible strain of Staphylococcus aureus is and both thighs were inoculated. Treatment was initiated 2 h after inoculation, thighs was harvested after 26 h and the bacterial density (colony forming units, CFU) in the excised tissue was determined. An initial dose finding study was performed to define the LEV ED50 (the dose that induces a half maximal decline in bacterial density). Within the study, LEV was be dosed intraperitoneal at 20 mg/kg.\nThe cluster composition investigated was as detailed in Example 1. […]\nThe bacterial density in the thighs harvested from the various groups was determined by growing a diluted sample of the excised tissue, homogenized in sterile PBS, on a plate with growth medium and counting the number of CFU."}, "[3]": {"tested_on": "T. saginata and Taenia solium (pork tapeworm) infection", "conditions": "in vivo; cited from earlier work"}}}
{"smiles": "Cc1cc(-c2ccc(/N=N/c3ccc4c(S(=O)(=O)O)cc(S(=O)(=O)O)c(N)c4c3O)c(C)c2)ccc1/N=N/c1ccc2c(S(=O)(=O)O)cc(S(=O)(=O)O)c(N)c2c1O", "note": "[EB, Evans Blue]", "values": [{"measurement": "EB ratio of the left (treated) to right (untreated) thigh muscle, average±SD", "setting": "[1]; EB 50 mg/kg i.v. + cluster dispersion 2 ml/kg + Activation and Enhancement US insonation", "value": "2.0±0.3"}, {"measurement": "EB ratio of the left (treated) to right (untreated) thigh muscle, average±SD", "setting": "[1]; EB 50 mg/kg i.v. + cluster dispersion 2 ml/kg, no US insonation", "value": "1.1±0.2"}, {"measurement": "increase in the uptake upon ACT treatment", "setting": "[1]", "value": "about 100%"}, {"measurement": "increase in the uptake upon ACT treatment", "setting": "[1]; listed as Evans Blue", "value": 100, "unit": "%"}]}
{"smiles": "C[C@H]1COc2c(N3CCN(C)CC3)c(F)cc3c(=O)c(C(=O)O)cn1c23", "note": "[LEV, Levofloxacin]", "values": [{"measurement": "ED50", "setting": "[2]", "value": "~24", "unit": "mg/kg"}]}
{"smiles": "O=C(Nc1ccc([N+](=O)[O-])cc1Cl)c1cc(Cl)ccc1O", "note": "[Niclosamide]", "values": [{"measurement": "cure rates", "setting": "[3]", "value": "approximately 90%"}]}
